Common to all, as to test: DTP human tumour cell line panel, 48 h
The test system of experiment [1] is HL-60.
Experiment [2] has as its system OVCAR-3.
Experiment [3] relates to 786-0.
In experiment [4] the test system is SK-MEL-28.
Experiment [5] has as its system SF-295.
Experiment [6] has as its system SN12C.
Experiment [7] has as its system EKVX.
Experiment [8] has as its system OVCAR-8.
For experiment [9], the system named is M14.
In experiment [10] the test system is SK-MEL-2.
Experiment [11] has as its system COLO 205.
The test system of experiment [12] is UO-31.
The subject of experiment [13] is NCI-H226.
Experiment [14] concerns SF-268.
Experiment [15] has as its system OVCAR-4.
Experiment [16] relates to MDA-MB-231.
Experiment [17] concerns RPMI-8226.
Experiment [18] has as its system HOP-92.
The test system of experiment [19] is HCT-116.
Experiment [20] has as its system IGROV-1.

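Following 48 hours of exposure in 96-well plates, responses at five concentrations were used to interpolate endpoints linearly. GI50 is the concentration that inhibits growth by half.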 Activity calls are given as the source filed them. Rule as the data show it: active = GI50 up to about 1.1 µM and inactive = higher.

`COc1ccc(C2C(Cl)C(=O)N2NC(=O)c2ccc(N)cc2)cc1OC` (stereo not given): the GI50 (commonly the concentration that inhibits growth by half) in [1] was 1.64 µM (inactive); in experiment [2] it was 5.85 µM (inactive); in experiment [3], 2.43 µM (inactive); in [4] it was 2.48 µM (inactive); in experiment [5], 7.16 µM (inactive); in experiment [6], 9.95 µM (inactive). Besides, the GI50 in experiment [7] was 16.5 µM (inactive); in experiment [8] it was 4.08 µM (inactive); in [9], 8.43 µM (inactive); in experiment [10], 11.9 µM (inactive); in experiment [11] it was 11.9 µM (inactive); in experiment [12], 12.1 µM (inactive). The GI50 is 18.7 µM (inactive) in experiment [13]; 10.9 µM (inactive) in experiment [14]; 5.69 µM (inactive) in experiment [15]; 14.7 µM (inactive) in [16]; 3.1 µM (inactive) in experiment [17]; 2 µM (inactive) in experiment [18]. Besides, the results for the GI50 in [19] and in [20] were 1.5 µM (inactive) and 1.36 µM (inactive), respectively.

In the case of `NS(=O)(=O)c1ccc(NC(=O)N/N=C/c2ccccc2[N+](=O)[O-])cc1`, the GI50 was 46.1 µM (inactive) in experiment [1]; 30.1 µM (inactive) in experiment [2]; 45.6 µM (inactive) in experiment [3]; 61.2 µM (inactive) in experiment [4]; 61.7 µM (inactive) in experiment [5]; 32.7 µM (inactive) in [6]. Besides, the GI50 in experiment [7] was 61 µM (inactive); in [8], 37.7 µM (inactive); in [9], 25.5 µM (inactive); in experiment [10], 58.7 µM (inactive); in [11] it was 38.4 µM (inactive); in experiment [12], 41 µM (inactive). The GI50 in experiment [13] was 42.9 µM (inactive); in [14], 56.6 µM (inactive); in experiment [15], 59.8 µM (inactive); in experiment [16] it was 44.8 µM (inactive); in [17], 30.3 µM (inactive); in experiment [18], 65.3 µM (inactive). The figures for the GI50 in experiment [19] and in experiment [20] were 30.1 µM (inactive) and 31.2 µM (inactive), respectively.

As to `OCC(O)C(O)C(O)C1SC(c2ccccc2)=NN1c1ccccc1` (stereo not given), the GI50 in experiment [1] is > 88.7 µM (inactive); in experiment [2] it was > 68.9 µM (inactive); in experiment [3] it was 37 µM (inactive); in [4] it was > 81.5 µM (inactive); in experiment [5] it was 35.1 µM (inactive); in [6], > 91.8 µM (inactive). Also, the GI50 in experiment [7] was > 95.7 µM (inactive); in experiment [8] it was 54 µM (inactive); in experiment [9], 83 µM (inactive); in experiment [10] it was 41.7 µM (inactive); in experiment [11], > 100 µM (inactive); in experiment [12], 66.2 µM (inactive). In addition, the GI50 in experiment [13] was > 76 µM (inactive); in [14] it was 24.6 µM (inactive); in [15] it was > 88.3 µM (inactive); in [16], > 55 µM (inactive); in experiment [17], > 86.3 µM (inactive); in experiment [18] it was 27 µM (inactive). For the same compound, the values for the GI50 in experiment [19] and in [20] were 69.5 µM (inactive) and > 96.2 µM (inactive), respectively.

With `CC(C)(C)OCC1NC(=O)[C@@H]2Cc3c([nH]c4ccccc34)C(c3ccccc3)N2C1=O` (stereo not given in full), the GI50 in experiment [1] is > 26.2 µM (inactive); in experiment [2] it was > 50 µM (inactive); in experiment [3], > 50 µM (inactive); in [4] it was > 50 µM (inactive); in [5] it was > 50 µM (inactive); in experiment [6], > 50 µM (inactive). In addition, the GI50 in experiment [7], in experiment [8], in experiment [9], in experiment [10], in experiment [11] and in experiment [12] was > 50 µM (inactive) in each case. Moreover, the GI50 is > 27.4 µM (inactive) in [13]; > 50 µM (inactive) in experiment [14]; > 50 µM (inactive) in [15]; > 50 µM (inactive) in [16]; > 21.6 µM (inactive) in experiment [17]; > 50 µM (inactive) in experiment [18]. Moreover, the GI50 in experiment [19] and in experiment [20] was > 50 µM (inactive) throughout.

Consider `CCOP(=O)(OCC)/C(C#N)=C/c1cnc(-c2ccccc2)[nH]1`, for which the GI50 in experiment [1], in [2], in experiment [3], in experiment [4], in [5] and in [6] was > 100 µM (inactive) in each case. In addition, the GI50 in experiment [7], in experiment [8], in experiment [9], in experiment [10], in experiment [11] and in [12] was > 100 µM (inactive) throughout. Besides, the GI50 in experiment [13], in experiment [14], in [15], in [16], in experiment [17] and in [18] was > 100 µM (inactive) each time. Also, the GI50 in [19] and in experiment [20] was > 100 µM (inactive) each time.

`O=[N+]([O-])c1cccc(CSc2nc(O)c3nc[nH]c3n2)c1`: the GI50 in experiment [1], in [2], in [3], in experiment [4], in [5] and in experiment [6] was > 100 µM (inactive) in each case. For the same compound, the GI50 in [7], in experiment [8], in [9], in experiment [10], in experiment [11] and in experiment [12] was > 100 µM (inactive) in each case. Moreover, the GI50 was 79.8 µM (inactive) in experiment [13]; > 100 µM (inactive) in [14]; > 100 µM (inactive) in [15]; > 100 µM (inactive) in experiment [16]; > 100 µM (inactive) in experiment [17]; > 100 µM (inactive) in [18]. For the same compound, the GI50 in experiment [19] and in experiment [20] was > 100 µM (inactive) each time.

As to `CC1(C)COC(c2ccccc2-c2ccccc2)=N1`, the GI50 in [1] is > 100 µM (inactive); in experiment [2], > 100 µM (inactive); in [3], > 100 µM (inactive); in experiment [4] it was > 100 µM (inactive); in [5], 53.7 µM (inactive); in [6], > 100 µM (inactive). Further, the GI50 in experiment [7] is 72.1 µM (inactive); in [8], > 100 µM (inactive); in [9], > 100 µM (inactive); in experiment [10] it was > 100 µM (inactive); in experiment [11], > 100 µM (inactive); in experiment [12] it was 67.6 µM (inactive). The GI50 is > 100 µM (inactive) in experiment [13]; > 100 µM (inactive) in experiment [14]; > 100 µM (inactive) in [15]; 56.6 µM (inactive) in experiment [16]; > 100 µM (inactive) in experiment [17]; > 100 µM (inactive) in experiment [18]. Also, the values for the GI50 in experiment [19] and in experiment [20] were > 100 µM (inactive) and 67.8 µM (inactive), respectively.

Regarding `Clc1nc2c(-c3cccs3)ncnc2n1Cc1ccccc1`, the GI50 is 24.5 µM (inactive) in [1]; 23 µM (inactive) in experiment [2]; 19.5 µM (inactive) in experiment [3]; 61.5 µM (inactive) in [4]; 63.5 µM (inactive) in experiment [5]; 35.8 µM (inactive) in experiment [6]. The GI50 in [7] was 21.4 µM (inactive); in experiment [8], 49.9 µM (inactive); in experiment [9], 66.8 µM (inactive); in experiment [10] it was 63.2 µM (inactive); in [11], 34.7 µM (inactive); in experiment [12], 0.435 µM (active). Further, the GI50 in experiment [13] is 15.8 µM (inactive); in [14], 29.6 µM (inactive); in experiment [15] it was 44.9 µM (inactive); in experiment [16], 32.2 µM (inactive); in experiment [17], 3.58 µM (inactive); in experiment [18], 9.44 µM (inactive). Besides, the figures for the GI50 in experiment [19] and in experiment [20] were 45.2 µM (inactive) and 29.6 µM (inactive), respectively.

Regarding `COC(=O)c1ccc(NCC2=CC(=O)c3ccccc3C2=O)cc1`, the GI50 in experiment [1] was 3.1 µM (inactive); in experiment [2], 12.9 µM (inactive); in [3] it was 19.3 µM (inactive); in experiment [4] it was 17.5 µM (inactive); in experiment [5], 16.9 µM (inactive); in [6], 21.8 µM (inactive). Further, the GI50 in experiment [7] was 21.1 µM (inactive); in [8], 29.8 µM (inactive); in experiment [9] it was 17.8 µM (inactive); in experiment [10], 18.9 µM (inactive); in [11] it was 13.3 µM (inactive); in experiment [12], 16.1 µM (inactive). For the same compound, the GI50 in experiment [13] was 16.4 µM (inactive); in [14], 24.8 µM (inactive); in experiment [15], 14.2 µM (inactive); in [16] it was 2.99 µM (inactive); in [17] it was 6.32 µM (inactive); in experiment [18], 2.77 µM (inactive). The GI50 was 17.8 µM (inactive) in experiment [19] and 12.2 µM (inactive) in [20].

Consider `CC(=O)Nc1n[n+]([O-])c2cc(C)ccc2[n+]1[O-]`, for which the GI50 in experiment [1] is 1.92 µM (inactive); in experiment [2], 2.4 µM (inactive); in experiment [3], 3.26 µM (inactive); in [4], 17 µM (inactive); in experiment [5] it was 2.5 µM (inactive); in [6], 3.05 µM (inactive). Besides, the GI50 in experiment [7] is 4.79 µM (inactive); in experiment [8], 2.96 µM (inactive); in [9], 2.42 µM (inactive); in experiment [10], 3.81 µM (inactive); in experiment [11], 2.37 µM (inactive); in experiment [12], 3.38 µM (inactive). In addition, the GI50 is 4.32 µM (inactive) in experiment [13]; 3.57 µM (inactive) in [14]; 4.38 µM (inactive) in experiment [15]; 6.81 µM (inactive) in experiment [16]; 2.83 µM (inactive) in [17]; 1.01 µM (active) in experiment [18]. Also, the GI50 in experiment [19] is 2.08 µM (inactive); in experiment [20], 1.48 µM (inactive).

The values are drawn from ChEMBL document CHEMBL1201862, “PubChem BioAssay data set” (2004).
